The results in this text go back to patent US8716285B2, “N-hydroxy-benzamids for the treatment of cancer” (Hoffmann-La Roche Inc., priority 2010, dated 2014).

In one assay the test system is RPMI-8226 cells. As to the kind of experiment: Growth inhibitory synergy with Velcade, WST/CCK-8 assay. In kind it is cell-based. The note with it: 72 h. As to the method: Cells were seeded in 96-well culture plates (200 μl/well at different seeding concentrations depending on cell type) and incubated overnight at 37° C. in 5% CO2. After adding compound dilutions to the cells (DMSO concentration kept below 0.5%), the cells were incubated at 37° C. in 5% CO2 for 72 hours. The effects on proliferation were determined by addition of CCK-8 reagent (Dojindo) according to the manufacturer's instruction, followed by incubation for 2 hours at 37° C. in 5% CO2, and finally recording the absorbance at 450 nm using an ELISA plate reader.
Novel compounds were tested for their synergistic effect with Velcade in multiple myeloma cells in vitro. Briefly, the multiple myeloma cells (RPMI-8226, OPM-2, or NCI-H929) were seeded into 96 well plate at 18000-20000 cells per well. The GI50s of these compounds against myeloma cells were measured by WST assay. […] The tested compound and Velcade used the same dilution factor in the combination treatment. […] After 72 h treatment, cell viability was measured at 450 nm by SpectraMAX190 after 2 h incubation with CCK8 reagent at 37° C. Synergy between the tested compounds and velcade was analyzed by software Calcusyn. […]
Notes: Chou and Talalay in 1983 proposed the designation of CI (combination index)=1 as the additive effect. […] It can be calculated by the equation above. […]

The target in a further assay is recombinant human HDAC8 (Homo sapiens (Human), UniProt Q9BY41). In words: HDAC8 inhibition: recombinant HDAC8 fluorometric assay. In kind it is biochemical. The note with it: recombinant human HDAC8, substrate Ac-Arg-His-Lys-Lys(ε-acetyl)-AMC.
For the next assay, the target named is HDAC6 (Homo sapiens (Human), UniProt Q9UBN7). As to the kind of experiment: Tubulin acetylation cytoblot assay (A549 cells). The note with it: 17-18 h, concentration for 50% induction of acetylated tubulin, read-out: Tub-ac EC50. In kind it is cell-based.
The test system of assay [1] is p21 promoter-luciferase construct. As to the kind of experiment: p21 reporter gene induction in HeLa cells transfected with p21 promoter-luciferase construct. The class given is cell-based. The note with it: for p21 RP3: relative gene level of p21 induced compared to MS275 at 3 μM; for p21 RP10: relative level of p21 induced compared to MS275 at 10 μM; for p21 RP30: relative level of p21 induced compared to MS275 at 30 μM.

Chain of recombinant human HDAC8 (Q9BY41 whole entry): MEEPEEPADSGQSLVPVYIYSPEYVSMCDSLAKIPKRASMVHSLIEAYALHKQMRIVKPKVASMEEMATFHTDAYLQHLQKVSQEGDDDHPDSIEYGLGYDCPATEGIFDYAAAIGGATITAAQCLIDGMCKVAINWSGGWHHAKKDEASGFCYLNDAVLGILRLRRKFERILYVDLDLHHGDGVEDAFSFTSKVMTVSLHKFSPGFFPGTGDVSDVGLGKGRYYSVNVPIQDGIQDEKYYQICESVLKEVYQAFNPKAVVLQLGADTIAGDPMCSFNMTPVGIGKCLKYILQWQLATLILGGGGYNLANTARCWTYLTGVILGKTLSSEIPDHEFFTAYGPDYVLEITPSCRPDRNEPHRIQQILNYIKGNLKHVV
Chain of HDAC6 (Q9UBN7 whole entry): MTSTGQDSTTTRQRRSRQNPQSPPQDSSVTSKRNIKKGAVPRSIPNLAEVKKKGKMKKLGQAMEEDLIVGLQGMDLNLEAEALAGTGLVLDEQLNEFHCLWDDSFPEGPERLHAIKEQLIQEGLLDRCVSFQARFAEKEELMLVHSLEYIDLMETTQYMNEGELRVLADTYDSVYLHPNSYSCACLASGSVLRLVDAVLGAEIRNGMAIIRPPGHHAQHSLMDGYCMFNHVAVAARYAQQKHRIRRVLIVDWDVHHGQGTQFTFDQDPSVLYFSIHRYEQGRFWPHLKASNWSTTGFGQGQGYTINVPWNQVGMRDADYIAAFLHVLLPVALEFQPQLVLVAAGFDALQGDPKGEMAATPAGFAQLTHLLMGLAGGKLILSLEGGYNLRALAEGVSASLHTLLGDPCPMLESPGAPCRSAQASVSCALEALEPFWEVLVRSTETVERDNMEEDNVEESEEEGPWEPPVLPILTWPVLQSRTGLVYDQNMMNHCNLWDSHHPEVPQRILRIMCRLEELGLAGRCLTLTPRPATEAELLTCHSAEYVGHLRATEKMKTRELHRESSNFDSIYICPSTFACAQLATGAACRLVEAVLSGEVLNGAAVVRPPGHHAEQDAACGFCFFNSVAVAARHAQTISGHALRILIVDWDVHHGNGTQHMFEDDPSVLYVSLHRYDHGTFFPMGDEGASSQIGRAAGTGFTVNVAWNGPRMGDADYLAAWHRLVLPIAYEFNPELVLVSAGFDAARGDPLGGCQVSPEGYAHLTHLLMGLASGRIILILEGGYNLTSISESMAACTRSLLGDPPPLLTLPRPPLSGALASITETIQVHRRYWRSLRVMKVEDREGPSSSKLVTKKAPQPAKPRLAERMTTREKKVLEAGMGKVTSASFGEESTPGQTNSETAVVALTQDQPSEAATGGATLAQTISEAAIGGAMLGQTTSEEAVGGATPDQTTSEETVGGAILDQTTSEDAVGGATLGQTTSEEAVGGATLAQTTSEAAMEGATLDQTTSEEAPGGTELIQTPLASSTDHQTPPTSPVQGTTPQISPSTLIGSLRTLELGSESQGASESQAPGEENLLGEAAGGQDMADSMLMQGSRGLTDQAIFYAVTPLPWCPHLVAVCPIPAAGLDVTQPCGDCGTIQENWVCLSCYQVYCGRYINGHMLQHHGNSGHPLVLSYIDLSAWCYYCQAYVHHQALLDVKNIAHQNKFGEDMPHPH

For the compound `O=C(NO)c1ccc2c(c1)CC(Nc1nccc(-c3cccnc3)n1)CC2` (stereo not drawn) [Example 24, 7-(4-Pyridin-3-yl-pyrimidin-2-ylamino)-5,6,7,8-tetrahydro-naphthalene-2-carboxylic acid hydroxyamide], in the assay with RPMI-8226 cells, the “synergy with Velcade in cell growth inhibition” value was “synergized with Velcade”.
With `COc1cccc(C(=O)NC2CNc3ccc(C(=O)NO)cc3C2)c1` (stereo not drawn) [Example 54, 3-(3-Methoxy-benzoylamino)-1,2,3,4-tetrahydro-quinoline-6-carboxylic acid hydroxyamide], the IC50 at recombinant human HDAC8 is 2.81 µM. Moreover, on HDAC6, the EC50 was 3.39 µM. For the same compound, in assay [1], the “p21 RP3” value is listed as 0.03, the “p21 RP10” value amounted to 0.03 and the “p21 RP30” value worked out at 0.07.
As for `O=C(NO)c1ccc2c(c1)CC(NC(=O)c1ccc(Cl)cc1)CN2` (stereo not drawn) [Example 55, 3-(4-Chloro-benzoylamino)-1,2,3,4-tetrahydro-quinoline-6-carboxylic acid hydroxyamide], on recombinant human HDAC8, the IC50 is 2.41 µM. The EC50 on HDAC6 was found to be 2.69 µM. In assay [1], the “p21 RP3” value is on record as 0.50, the “p21 RP10” value was 0.13 and the “p21 RP30” value amounted to 0.06.
For the compound `O=C(NO)c1ccc2c(c1)CC(NC(=O)c1cccc(Cl)c1)CN2` (stereo not drawn) [Example 56, 3-(3-Chloro-benzoylamino)-1,2,3,4-tetrahydro-quinoline-6-carboxylic acid hydroxyamide], the IC50 on recombinant human HDAC8 was 3.37 µM. The EC50 on HDAC6 was determined as 3.43 µM. Moreover, in assay [1], the “p21 RP3” value came out at 0.04, the “p21 RP10” value is 0.05 and the “p21 RP30” value is 0.12.
`O=C(NO)c1ccc2c(c1)CC(NC(=O)c1cccc(C(F)(F)F)c1)CN2` (stereo not drawn) [Example 57, 3-(3-Trifluoromethyl-benzoylamino)-1,2,3,4-tetrahydro-quinoline-6-carboxylic acid hydroxyamide]: the IC50 on recombinant human HDAC8 turned out to be 2.67 µM. For the same compound, the EC50 on HDAC6 stood at 7.13 µM. Also, in assay [1], the “p21 RP3” value came out at 0.07, the “p21 RP10” value is reported as 0.01 and the “p21 RP30” value is reported as 0.04.
In the same order, the values of `O=C(NO)c1ccc2c(c1)CC(NC(=O)c1ccc(Cl)c(Cl)c1)CN2` (stereo not drawn) [Example 58, 3-(3,4-Dichloro-benzoylamino)-1,2,3,4-tetrahydro-quinoline-6-carboxylic acid hydroxyamide] are 2.63 µM, 5.36 µM, 0.03, −0.03 and 0.01.
In the same order, the values of `O=C(NO)c1ccc2c(c1)CC(NC(=O)c1ccc(-c3ccccc3)cc1)CN2` (stereo not drawn) [Example 59, 3-[(Biphenyl-4-carbonyl)-amino]-1,2,3,4-tetrahydro-quinoline-6-carboxylic acid hydroxyamide] are 2.85 µM, 7.99 µM, 0.20, 0.08 and 0.15.
As to `CN1CC(NS(=O)(=O)c2ccc(Cl)cc2)Cc2cc(C(=O)NO)ccc21` (stereo not drawn) [Example 65, 3-(4-Chloro-benzenesulfonylamino)-1-methyl-1,2,3,4-tetrahydro-quinoline-6-carboxylic acid hydroxyamide], at recombinant human HDAC8, the IC50 is 0.75 µM. Further, the EC50 on HDAC6 amounted to 10.6 µM. In addition, in assay [1], the “p21 RP3” value was 0.41, the “p21 RP10” value came to 0.26 and the “p21 RP30” value worked out at 0.46.
